For one data set, the target named is αv β3 integrin receptor (Homo sapiens, UniProt P05106+P06756). Briefly: series of in vitro assays of Example II (potency and selectivity summary).
The subject of a further data set is osteoclasts. To be noted: cited from earlier work.
For data set [1] the following is noted: cited from earlier work.
Data set [2] can be described thus: half-life of peptide in serum. To be noted: in vivo. An excerpt: Increased stability of a disulfide bonded peptide of the invention also can be conferred by incorporating a hydrophobic amino acid residue such as phenylalanine at position X1 or X8 or both X1 and X8 in an RGDNTic (SEQ ID NO: 31) or RGDDV (SEQ ID NO: 1) pharmacophore as disclosed herein. The presence of such a residue can stabilize the disulfide bond against enzymatic degradation (see Bauer et al., Life Sciences 31:1133-1140 (1982)). […] In addition, the half-life of a peptide in a subject can be determined, for example, by high performance liquid chromatography (HPLC) of serum samples collected from the subject at various times following administration of the peptide. One skilled in the art would know how to select appropriate elution buffers for HPLC based on the physico-chemical properties of a particular peptide.

The conditions of data set [3]: rabbit, in vivo; cited from earlier work.
Data set [4] has as its target T1, purified human α5 β1 (FnR) (Homo sapiens, UniProt P05556+P08648).
T1 construct: Fibronectin receptor (FnR) was purified from 100 mM octyl-glucopyranoside-extracted human placenta; from tissue; host or cells: human placenta
The data set is described as follows: α5 β1 ELISA (competitive). The format is binding. As for the experimental part:
Peptide binding to purified human α5 β1 (FnR) also was determined using a competitive ELISA. In these assays, Fn was immobilized to the wells and the binding of solubilized FnR in the presence of various concentrations of a peptide analogue was determined using a mouse monoclonal antibody to human β1 (clone P4C10; Gibco) and specific binding was visualized using a second antibody.
Microtiter wells were coated at RT by adding 100 μl of 2 μg/ml human Fn in TBS and incubating the plates overnight at 4° C. Following incubation, the plates were washed 3× with TBS/"TWEEN 20" (polyoxyethylenesorbitan monolaurate). RGD peptides were diluted in TBS containing 20 mM OG and 2 mM MnCl2 and 50 μl was added to wells at 10-fold serial dilutions. FnR was diluted in the same buffer and 50 μl was added to each well.
The plates were incubated for 3 hr at RT and washed with 300 μl TBS/"TWEEN 20" (polyoxyethylenesorbitan monolaurate). Bound receptor was incubated with 100 μl of the monoclonal anti-β1 antibody for 2 hr, then washed 3× with TBS/"TWEEN 20" (polyoxyethylenesorbitan monolaurate). […] The amount of bound second antibody was determined as described above.
The IC50 values for various RGD peptides were calculated by determining the concentration of a peptide that inhibited binding of Vn to αv β5 or αv β3 or of Fn to α5 β1, by 50%. […]
Background: An ELISA detects its analyte on a solid surface through an enzyme-linked reagent.

A short description of data set [5]: parathyroid hormone-induced hypercalcemia in mice. To be noted: parathyroidectomized mice, 4 hr infusion, various doses. It counts as in vivo. An excerpt: Parathyroid hormone (PTH) activates osteoclasts, which are involved in bone resorption. Associated with the increased osteoclast activity is an increase in serum calcium. The PTH-induced hypercalcemia assay measures the level of serum calcium, which is an indication of bone resorption in a subject (Fischer et al., Endocrinology 132:1411-1413 (1993), which is incorporated herein by reference).
Swiss-Webster mice, which had been parathyroidectomized two weeks prior to beginning the assay, were obtained from Taconic Lab Animals and Services (Germantown N.Y.). Femoral vein catheters (PE-50 fused with PE10 polyethylene tubing; Becton Dickinson; Parsippany, N.J.) were installed in the mice, flushed and locked with heparinized saline (1:10), sutured to adjacent muscle and internalized within the inguinal space of the incision before closing the incision with wound clips. […]
The experiment was initiated by feeding the mice a calcium-deficient diet overnight, then injecting the mice the following morning with a bolus of 0.2 mg PTH/kg (hPTH 1-34; Bachem; Torrance Calif.), intravenously. […] Various doses of a peptide or vehicle were infused into an animal for 4 hr, then ionized serum calcium again was measured. […] Serum calcium measurements were expressed as the difference between the value 30 min before the PTH pulse and 4 hr after peptide infusion was started. […]

Where a SMILES comes first, the peptide text is derived from it. Bridges are numbered along the chain shown (N, C = ends). [ ]: non-standard residue; d: D form. Tic = O=C(O)[C@@H]1Cc2ccccc2CN1; Pen = CC(C)(S)[C@H](N)C(=O)O; Mpa = O=C(O)CCS

Regarding `CC(=O)N[C@H]1CSSC[C@@H](C(N)=O)NC(=O)[C@@H]2Cc3ccccc3CN2C(=O)[C@H](CO)NC(=O)[C@H](CC(=O)O)NC(=O)CNC(=O)[C@H](CCCNC(=N)N)NC1=O` [compound 812, Ac-CRGDS(Tic)C-NH2] (Ac-CRGDS[Tic]C-NH2; disulfide 1-7), the “activity (FIG. 2 assays)” value on αv β3 integrin receptor (minimal-element peptides) is reported as “demonstrate activity”. The “potency (active at relatively low concentration)” value at αv β3 integrin receptor (summary of assays) is “particularly potent”. For Echistatin, the binding to osteoclasts result in the data set with osteoclasts is “binds to osteoclasts in a nonselective manner”. In the data set with osteoclasts (in vitro), the “bone resorption in vitro” value was “inhibits bone resorption in vitro”. Further, the “bone resorption in vivo” value in data set [1] is given as “inhibits bone resorption”. Turning to `CC(=O)N[C@@H]1C(=O)N[C@@H](Cc2ccccc2)C(=O)N[C@@H](C)C(=O)N[C@@H](CCCNC(=N)N)C(=O)NCC(=O)N[C@@H](CC(=O)O)C(=O)N[C@@H](CC(N)=O)C(=O)N2CCC[C@H]2C(=O)N[C@H](C(N)=O)CSSC1(C)C` [peptide 214] (Ac-[Pen]FARGDNPC-NH2; disulfide 1-9), on αv β3 integrin receptor (summary of assays), the “potency (active at relatively low concentration)” value is “particularly potent”.

In the case of `CC(=O)N[C@@H](Cc1ccccc1)C(=O)N[C@H]1CSSC[C@@H](C(N)=O)NC(=O)[C@H](Cc2ccccc2)NC(=O)[C@H]([C@@H](C)O)NC(=O)[C@H](CC(=O)O)NC(=O)CNC(=O)[C@H](CCCNC(=N)N)NC1=O` [peptide 220] (Ac-FCRGDTFC-NH2; disulfide 2-8), the half-life in serum result in data set [2] is “relatively long half-life in serum”. In the case of G(Pen)GRGDSPCA, the neointimal hyperplasia result in data set [3] is on record as “inhibit neointimal hyperplasia”. On to `CC(=O)N[C@H]1CSSC(C)(C)[C@@H](C(N)=O)NC(=O)[C@@H]2CCCN2C(=O)[C@H](CC(N)=O)NC(=O)[C@H](CC(=O)O)NC(=O)CNC(=O)[C@H](CCCNC(=N)N)NC1=O` [compound 228] (Ac-CRGDNP[Pen]-NH2; disulfide 1-7), for which the “receptor selectivity (summary)” value at αv β3 integrin receptor (summary of assays) is listed as “particularly receptor selective”.

Take `C[C@@H]1NC(=O)[C@H](CCCNC(=N)N)NC(=O)CNC(=O)CC[C@@H](C(N)=O)NC(=O)[C@@H]2CCCN2C(=O)[C@H](CC(N)=O)NC(=O)[C@H](CC(=O)O)NC(=O)CNC(=O)[C@H](CCCNC(=N)N)NC1=O` [compound 390] (GRARGDNPE-NH2; lactam N-9): the “receptor selectivity α5 β1 versus αv β5” value in data set [4] is on record as “more selective toward α5 β1 than toward αv β5”. Turning to `CC(C)[C@@H]1NC(=O)[C@H](CC(=O)O)NC(=O)[C@H](CC(=O)O)NC(=O)CNC(=O)[C@H](CCCNC(=N)N)NC(=O)CCSSC[C@@H](C(N)=O)NC1=O` [compound 191] ([Mpa]RGDDVC-NH2; disulfide 1-7), the “PTH-induced rise in serum ionized calcium” value in data set [5] is recorded as “decreased the PTH-induced rise in serum ionized calcium in a dose responsive manner”.

These data come from patent publication US5759996A, “Peptides useful for altering αv β3 -mediated binding” (priority 1995, dated 1998).
